Experimental findings from EP0401517A1, “Substituted 2-alkynylphenols with anti-inflammatory action, a process for their preparation and pharmaceutical compositions thereof” (CAMILLO CORVI S.p.A., priority 1989, dated 1990) are described below.

One experiment has as its system cyclo-oxygenase. The experiment in a line: In vitro cyclo-oxygenase activity: malondialdehyde production in guinea pig lung homogenate incubated with arachidonic acid and cofactors. It is filed as biochemical. On the procedure:
(§1) These new products are active in vitro as inhibitors of cyclo-oxygenase (malondialdehyde production test in guinea pig lung homogenates) and/or of the 5-lipo-oxygenase (A23187 stimulated rabbit leucocytes test).
The cyclooxygenase activity is determined according to the method of Luzzani et al. (Luzzani, F., et al. INT. J. TISS. REAC. X(2); 79-83, 1988), by monitoring the production of malondialdehyde in a guinea pig lung homogenate incubated in the presence of arachidonic acid and cofactors.
(§2) In Table I below the results of the comparisons of 8 inventive compounds with 3 prior art compounds are shown. In column "CO" the data concerning cyclo-oxygenase, and in column "5-LO" those concerning 5-lipo-oxygenase are shown.

The target in the next experiment is T1, 5-lipo-oxygenase (Oryctolagus cuniculus, UniProt G1SNX0).
T1 construct: a preparation of calcium ionophore A23187 stimulated rabbit leukocites; endogenous in cells; host or cells: rabbit leukocytes
T1 sequence (G1SNX0 1-674): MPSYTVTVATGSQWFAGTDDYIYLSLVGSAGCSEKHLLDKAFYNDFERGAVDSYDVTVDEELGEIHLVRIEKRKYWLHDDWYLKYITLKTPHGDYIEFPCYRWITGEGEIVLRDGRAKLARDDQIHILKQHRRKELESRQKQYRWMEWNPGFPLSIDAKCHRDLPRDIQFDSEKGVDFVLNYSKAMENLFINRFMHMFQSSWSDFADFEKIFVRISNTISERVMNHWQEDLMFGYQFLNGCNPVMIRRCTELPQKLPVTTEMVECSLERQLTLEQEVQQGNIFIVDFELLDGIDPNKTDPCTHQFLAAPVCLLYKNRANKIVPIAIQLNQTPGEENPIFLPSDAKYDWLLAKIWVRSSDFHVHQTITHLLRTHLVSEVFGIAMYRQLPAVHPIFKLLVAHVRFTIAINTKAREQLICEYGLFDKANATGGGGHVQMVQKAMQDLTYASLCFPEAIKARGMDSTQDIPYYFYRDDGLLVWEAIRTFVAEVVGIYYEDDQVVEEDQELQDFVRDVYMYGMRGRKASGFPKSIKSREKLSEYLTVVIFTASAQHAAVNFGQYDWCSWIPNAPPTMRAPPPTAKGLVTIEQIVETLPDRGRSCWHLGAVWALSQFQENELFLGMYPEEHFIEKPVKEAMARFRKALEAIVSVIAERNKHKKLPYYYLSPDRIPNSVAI
The experiment in a line: In vitro 5-lipo-oxygenase activity: formation of leukotriene B4 from [14C] arachidonic acid in calcium ionophore A23187 stimulated rabbit leukocytes (radiometric T.L.C. assay). It is filed as cell-based. Conditions: read-out: 5-LO (% of inhibition at 10 µM). The protocol:
as §1
The formation of leukotriene B₄ from [¹⁴C] arachidonic acid in a preparation of calcium ionophore A23187 stimulated rabbit leukocites is measured by means of a slightly modified radiometric T.L.C.assay based on published procedures (Beetens, J.R. et al. BIOCHEM. PHARMACOL 35 (6); 883, 1986).
as §2

By inhibition is commonly meant the percentage by which the read-out fell short of the control. Turning to `CC(Cc1ccc(O)c(O)c1)C(C)Cc1ccc(O)c(O)c1` (stereo not drawn) [NORDIHYDROGUAIARETIC ACID, reference compound], the “CO (% of inhibition at 10 µM)” value with cyclo-oxygenase came out at 5%. In addition, on 5-lipo-oxygenase, the inhibition at 10 µM came out at 92%.

On to `COc1ccc2c(c1)c(CC(=O)O)c(C)n2C(=O)c1ccc(Cl)cc1` [INDOMETHACIN, reference compound], for which the “CO (% of inhibition at 10 µM)” value with cyclo-oxygenase is 98%. Moreover, the inhibition at 10 µM at 5-lipo-oxygenase was determined as 0%.

`NC1=NN(c2cccc(C(F)(F)F)c2)CC1` [BW 755 c, reference compound]: the “CO (% of inhibition at 10 µM)” value in the experiment on cyclo-oxygenase stood at 30%. At 5-lipo-oxygenase, the inhibition at 10 µM is 25%.

Turning to `CC(C#Cc1ccccc1)c1cc(OCc2ccccc2)ccc1O` (stereo not drawn) [CP/1864, 4-Benzyloxy-2-(4-phenyl-3-butyne-2-yl)phenol], the “CO (% of inhibition at 10 µM)” value with cyclo-oxygenase is listed as 0%. Moreover, the inhibition at 10 µM on 5-lipo-oxygenase was 68%.

As to `Oc1cccc(CC#Cc2ccccc2)c1O` [CO:1841, 3-(3-Phenyl-2-propynyl)pyrocatechol], in the experiment with cyclo-oxygenase, the “CO (% of inhibition at 10 µM)” value worked out at 26%. For the same compound, on 5-lipo-oxygenase, the inhibition at 10 µM was 90%.

With `CCCCCCC#CCc1cc(OC)ccc1O` [CO/1837, 4-Methoxy-2-(2-nonynyl)phenol], the “CO (% of inhibition at 10 µM)” value in the experiment on cyclo-oxygenase was determined as 52%. The inhibition at 10 µM at 5-lipo-oxygenase was determined as 92%.

As to `COc1ccc(O)c(CC#Cc2ccccc2)c1` [CO/1828, 2-(3-Phenyl-2-propynyl)-4-metoxyphenol], the “CO (% of inhibition at 10 µM)” value with cyclo-oxygenase was determined as 50%. Besides, the inhibition at 10 µM at 5-lipo-oxygenase turned out to be 57%.

For the compound `COc1ccc(O)c(C(C)C#Cc2ccccc2)c1` (stereo not drawn) [CO/1863, 2-(4-Phenyl-3-butyne-2-yl)-4-methoxyphenol], in the experiment on cyclo-oxygenase, the “CO (% of inhibition at 10 µM)” value was 23%. For the same compound, the inhibition at 10 µM at 5-lipo-oxygenase was found to be 46%.

For the compound `COc1cccc(CC#Cc2ccccc2)c1O` [CO/1826, 2-(3-Phenyl-2-propynyl)-6-methoxyphenol], the “CO (% of inhibition at 10 µM)” value in the experiment on cyclo-oxygenase is listed as 66%. Moreover, the inhibition at 10 µM at 5-lipo-oxygenase is 52%.
